Test results taken from article PMC5218480 (PLoS ONE, 2017).

System: MV-4-11 cells
Assay: Gene expression microarray analysis (Affymetrix PrimeView) and GSEA
Assay type: cell-based, human
Set-up: RFU PODN (11730768_x_at) / Fold change /veh PODN (11730768_x_at) / RFU LINC00158 (11744669_a_at) / Fold change /veh LINC00158 (11744669_a_at) / RFU DUSP10 (11751237_a_at) / Fold change /veh DUSP10 (11751237_a_at) / RFU ID3 (11757404_x_at) / Fold change /veh ID3 (11757404_x_at) / RFU PLEKHG5 (11737974_s_at) / Fold change /veh PLEKHG5 (11737974_s_at) / RFU LRRC4B (11730491_at) / Fold change /veh LRRC4B (11730491_at) / RFU GIMAP4 (11747438_a_at) / Fold change /veh GIMAP4 (11747438_a_at) / RFU KRT8 (11758183_x_at) / Fold change /veh KRT8 (11758183_x_at) / RFU CNN1 (11734310_a_at) / Fold change /veh CNN1 (11734310_a_at) / RFU VPS37D (11726825_at) / Fold change /veh VPS37D (11726825_at) / RFU C10orf10 (11716522_x_at) / Fold change /veh C10orf10 (11716522_x_at) / RFU KIR2DL2 /// KIR2DL4 /// KIR2DL5A /// KIR2DL5B /// KIR2DS1 /// KIR2DS2 /// KIR2DS3 /// KIR2DS4 /// KIR3DL3 /// KIR3DL3 /// KIR3DS1 (11738374_at) / Fold change /veh KIR2DL2 /// KIR2DL4 /// KIR2DL5A /// KIR2DL5B /// KIR2DS1 /// KIR2DS2 /// KIR2DS3 /// KIR2DS4 /// KIR3DL3 /// KIR3DL3 /// KIR3DS1 (11738374_at) / RFU C1QL1 (11718748_at) / Fold change /veh C1QL1 (11718748_at) / RFU TMPRSS4 (11747572_a_at) / Fold change /veh TMPRSS4 (11747572_a_at) / RFU HAMP (11756126_x_at) / Fold change /veh HAMP (11756126_x_at) / RFU RNFT2 (11725882_a_at) / Fold change /veh RNFT2 (11725882_a_at) / RFU NR4A2 (11747474_a_at) / Fold change /veh NR4A2 (11747474_a_at) / RFU ABCC12 (11746883_a_at) / Fold change /veh ABCC12 (11746883_a_at) / RFU TMEM136 (11760407_x_at) / Fold change /veh TMEM136 (11760407_x_at) / RFU CLDN22 /// WWC2 (11732394_at) / Fold change /veh CLDN22 /// WWC2 (11732394_at) / RFU HLA-DPB1 (11760878_x_at) / Fold change /veh HLA-DPB1 (11760878_x_at) / RFU SPINT1 (11716480_a_at) / Fold change /veh SPINT1 (11716480_a_at) / RFU GAP43 (11754022_s_at) / Fold change /veh GAP43 (11754022_s_at) / RFU A4GNT (11735810_at) / Fold change /veh A4GNT (11735810_at) / RFU PRB3 (11715151_x_at) / Fold change /veh PRB3 (11715151_x_at) / RFU TUBB4B (11761932_at) / Fold change /veh TUBB4B (11761932_at) / RFU CAPN14 (11732068_a_at) / Fold change /veh CAPN14 (11732068_a_at) / RFU TMCC2 (11721928_a_at) / Fold change /veh TMCC2 (11721928_a_at) / RFU IRGQ (11745062_a_at) / Fold change /veh IRGQ (11745062_a_at) / RFU FAM174B (11720279_a_at) / Fold change /veh FAM174B (11720279_a_at) / RFU TMPRSS4 (11748680_a_at) / Fold change /veh TMPRSS4 (11748680_a_at) / RFU FAM212B (11763350_a_at) / Fold change /veh FAM212B (11763350_a_at) / RFU PLEKHG5 (11743358_a_at) / Fold change /veh PLEKHG5 (11743358_a_at) / RFU ZSCAN30 (11745921_a_at) / Fold change /veh ZSCAN30 (11745921_a_at) / RFU CMKLR1 (11741424_a_at) / Fold change /veh CMKLR1 (11741424_a_at) / RFU LOC101060620 /// MAPK8IP1 (11723275_at) / Fold change /veh LOC101060620 /// MAPK8IP1 (11723275_at) / RFU SPTSSB (11747773_x_at) / Fold change /veh SPTSSB (11747773_x_at) / RFU PRSS12 (11739890_at) / Fold change /veh PRSS12 (11739890_at) / RFU BIN1 (11741810_x_at) / Fold change /veh BIN1 (11741810_x_at) / RFU WNT11 (11732464_a_at) / Fold change /veh WNT11 (11732464_a_at) / RFU C10orf10 (11716521_a_at) / Fold change /veh C10orf10 (11716521_a_at) / RFU C5orf56 (11738089_at) / Fold change /veh C5orf56 (11738089_at) / RFU CYB561 (11721691_x_at) / Fold change /veh CYB561 (11721691_x_at) / RFU ANKRD19P (11752326_a_at) / Fold change /veh ANKRD19P (11752326_a_at) / RFU OR2T12 /// OR2T33 /// OR2T8 (11738714_s_at) / Fold change /veh OR2T12 /// OR2T33 /// OR2T8 (11738714_s_at) / RFU VCAN (11748164_a_at) / Fold change /veh VCAN (11748164_a_at) / RFU JSRP1 (11732532_at) / Fold change /veh JSRP1 (11732532_at) / RFU KRTAP10-11 (11738290_x_at) / Fold change /veh KRTAP10-11 (11738290_x_at) / RFU MYO3A (11730013_a_at) / Fold change /veh MYO3A (11730013_a_at) / RFU EBF3 (11725865_a_at) / Fold change /veh EBF3 (11725865_a_at) / RFU CAMK2N1 (11719241_x_at) / Fold change /veh CAMK2N1 (11719241_x_at) / RFU C5orf56 (11738088_a_at) / Fold change /veh C5orf56 (11738088_a_at) / RFU OLFML3 (11715873_a_at) / Fold change /veh OLFML3 (11715873_a_at) / RFU LOC100653217 /// NTM (11731650_a_at) / Fold change /veh LOC100653217 /// NTM (11731650_a_at) / RFU MAPK11 (11762145_a_at) / Fold change /veh MAPK11 (11762145_a_at) / RFU FIZ1 (11724087_x_at) / Fold change /veh FIZ1 (11724087_x_at) / RFU OASL (11726364_x_at) / Fold change /veh OASL (11726364_x_at) / RFU SOX15 (11748057_x_at) / Fold change /veh SOX15 (11748057_x_at) / RFU CD79A (11719716_a_at) / Fold change /veh CD79A (11719716_a_at) / RFU HIST1H1D (11736915_at) / Fold change /veh HIST1H1D (11736915_at) / RFU CASKIN2 (11723855_a_at) / Fold change /veh CASKIN2 (11723855_a_at) / RFU LOC730098 (11760151_x_at) / Fold change /veh LOC730098 (11760151_x_at) / RFU OR4N2 (11742367_at) / Fold change /veh OR4N2 (11742367_at) / RFU PRRT2 (11749266_a_at) / Fold change /veh PRRT2 (11749266_a_at) / RFU SNX32 (11753110_a_at) / Fold change /veh SNX32 (11753110_a_at) / RFU CDHR5 (11726645_a_at) / Fold change /veh CDHR5 (11726645_a_at) / RFU RCAN1 (11760418_a_at) / Fold change /veh RCAN1 (11760418_a_at) / RFU FAM167A (11723789_a_at) / Fold change /veh FAM167A (11723789_a_at) / RFU FAM26E (11764081_at) / Fold change /veh FAM26E (11764081_at) / RFU ISYNA1 (11749810_s_at) / Fold change /veh ISYNA1 (11749810_s_at) / RFU ACY1 (11761880_at) / Fold change /veh ACY1 (11761880_at) / RFU 11764098_at / Fold change /veh 11764098_at / RFU SAMD14 (11745864_x_at) / Fold change /veh SAMD14 (11745864_x_at) / RFU NPB (11741838_a_at) / Fold change /veh NPB (11741838_a_at) / RFU TMPRSS6 (11731388_a_at) / Fold change /veh TMPRSS6 (11731388_a_at) / RFU KRTAP10-2 (11738614_at) / Fold change /veh KRTAP10-2 (11738614_at) / RFU ARHGAP8 /// PRR5-ARHGAP8 (11727945_x_at) / Fold change /veh ARHGAP8 /// PRR5-ARHGAP8 (11727945_x_at) / RFU KRTAP5-7 /// NADSYN1 (11734609_at) / Fold change /veh KRTAP5-7 /// NADSYN1 (11734609_at) / RFU RASL12 (11751679_a_at) / Fold change /veh RASL12 (11751679_a_at) / RFU CDKN2B (11736163_a_at) / Fold change /veh CDKN2B (11736163_a_at) / RFU PRF1 (11729649_at) / Fold change /veh PRF1 (11729649_at) / RFU, ZNF638 /// ZNF638-IT1 / Fold change vs veh, ZNF638 /// ZNF638-IT1 / RFU, PANK3 / Fold change vs veh, PANK3 / RFU, SH3YL1 / Fold change vs veh, SH3YL1 / RFU, ZEB2 / Fold change vs veh, ZEB2 / RFU, NRIP1 / Fold change vs veh, NRIP1 / RFU, PTTG1IP / Fold change vs veh, PTTG1IP / RFU, CAPN2 / Fold change vs veh, CAPN2 / RFU, MED14 / Fold change vs veh, MED14 / RFU, SNORA58 / Fold change vs veh, SNORA58 / RFU, C1orf63 / Fold change vs veh, C1orf63 / RFU, LRRFIP1 / Fold change vs veh, LRRFIP1 / RFU, NDUFAF7 / Fold change vs veh, NDUFAF7 / RFU, SLC12A2 / Fold change vs veh, SLC12A2 / RFU, IBTK / Fold change vs veh, IBTK / RFU, ESF1 / Fold change vs veh, ESF1 / Fold change vs veh, TMEM50B / RFU, TAOK1 / Fold change vs veh, TAOK1 / RFU, ACBD3 / Fold change vs veh, ACBD3 / RFU, TMA16 / Fold change vs veh, TMA16 / RFU, RWDD3 / Fold change vs veh, RWDD3 / RFU, BCAT1 / Fold change vs veh, BCAT1 / RFU, EDEM3 / Fold change vs veh, EDEM3 / RFU, TMEM33 / Fold change vs veh, TMEM33 / RFU, WDR75 / Fold change vs veh, WDR75 / RFU, AHCTF1 / Fold change vs veh, AHCTF1 / RFU, TFRC / Fold change vs veh, TFRC / RFU, ZDHHC17 / Fold change vs veh, ZDHHC17 / RFU, NOM1 / Fold change vs veh, NOM1 / RFU, ARL8B / Fold change vs veh, ARL8B / RFU, ZBTB11 / Fold change vs veh, ZBTB11 / RFU, TAMM41 / Fold change vs veh, TAMM41 / RFU, KIAA1704 /// LOC100996395 / Fold change vs veh, KIAA1704 /// LOC100996395 / RFU, ING1 / Fold change vs veh, ING1 / RFU, TRMT61B / Fold change vs veh, TRMT61B / RFU, FUBP3 / Fold change vs veh, FUBP3 / RFU, TP53 / Fold change vs veh, TP53 / RFU, TNKS2 / Fold change vs veh, TNKS2 / RFU, ZFP14 / Fold change vs veh, ZFP14 / RFU, ACTR2 / Fold change vs veh, ACTR2 / RFU, PPP3R1 / Fold change vs veh, PPP3R1 / RFU, PIK3R1 / Fold change vs veh, PIK3R1 / RFU, HNRNPA1 / Fold change vs veh, HNRNPA1 / RFU, RNF170 / Fold change vs veh, RNF170 / RFU, ZNF28 / Fold change vs veh, ZNF28 / RFU, RNGTT / Fold change vs veh, RNGTT / RFU, OGT / Fold change vs veh, OGT / RFU, BRD1 / Fold change vs veh, BRD1 / RFU, MARS / Fold change vs veh, MARS / RFU, ZNF655 / Fold change vs veh, ZNF655 / RFU, FAHD1 / Fold change vs veh, FAHD1 / RFU, BDP1 / Fold change vs veh, BDP1 / RFU, LRRCC1 / Fold change vs veh, LRRCC1 / RFU, ARID1A / Fold change vs veh, ARID1A / RFU, ZNF146 / Fold change vs veh, ZNF146 / RFU, ZNF330 / Fold change vs veh, ZNF330 / RFU, GPN3 / Fold change vs veh, GPN3 / RFU, C9orf123 / Fold change vs veh, C9orf123 / RFU, N4BP2L2 / Fold change vs veh, N4BP2L2 / RFU, ARFIP1 / Fold change vs veh, ARFIP1 / RFU, FAM179B / Fold change vs veh, FAM179B / RFU, BCL10 / Fold change vs veh, BCL10 / RFU, UHRF1BP1L / Fold change vs veh, UHRF1BP1L / RFU, BET1 / Fold change vs veh, BET1 / RFU, CNOT2 / Fold change vs veh, CNOT2 / RFU, ZNF268 / Fold change vs veh, ZNF268 / Fold change vs veh, ZNF507 / RFU, DGCR2 / Fold change vs veh, DGCR2 / RFU, WDSUB1 / Fold change vs veh, WDSUB1 / Fold change vs veh, HSP90B1 /// MIR3652 / RFU, ADSS / Fold change vs veh, ADSS / RFU, GK / Fold change vs veh, GK / RFU, ZNF148 / Fold change vs veh, ZNF148 / RFU, TAF9 / Fold change vs veh, TAF9 / RFU, SLC1A5 / Fold change vs veh, SLC1A5 / RFU, SLMO2 / Fold change vs veh, SLMO2 / RFU, ABCC4 / Fold change vs veh, ABCC4 / RFU, LOC101060439 /// RAP1B / Fold change vs veh, LOC101060439 /// RAP1B / RFU, RFX7 / Fold change vs veh, RFX7 / RFU, GTPBP10 / Fold change vs veh, GTPBP10 / RFU, CNEP1R1 / Fold change vs veh, CNEP1R1 / RFU, BIVM-ERCC5 /// ERCC5 / Fold change vs veh, BIVM-ERCC5 /// ERCC5 / RFU, ILF3 / Fold change vs veh, ILF3 / RFU 11762660_at / Fold change /veh 11762660_at / RFU VCAN (11757783_s_at) / Fold change /veh VCAN (11757783_s_at) / RFU DDX43 (11728927_at) / Fold change /veh DDX43 (11728927_at) / RFU KRT8 (11758188_x_at) / Fold change /veh KRT8 (11758188_x_at) / RFU NKD1 (11759106_at) / Fold change /veh NKD1 (11759106_at) / RFU SRD5A1 (11742802_a_at) / Fold change /veh SRD5A1 (11742802_a_at) / RFU TPSAB1 /// TPSB2 (11721975_s_at) / Fold change /veh TPSAB1 /// TPSB2 (11721975_s_at) / RFU GSTM3 (11746129_a_at) / Fold change /veh GSTM3 (11746129_a_at) / RFU IL23R (11737362_x_at) / Fold change /veh IL23R (11737362_x_at) / RFU TMEM51 (11727254_a_at) / Fold change /veh TMEM51 (11727254_a_at) / RFU PIWIL2 (11732686_x_at) / Fold change /veh PIWIL2 (11732686_x_at) / RFU ORM1 (11744905_x_at) / Fold change /veh ORM1 (11744905_x_at) / RFU CCDC152 (11743942_at) / Fold change /veh CCDC152 (11743942_at) / RFU ECM1 (11717891_a_at) / Fold change /veh ECM1 (11717891_a_at) / RFU IL23R (11748794_a_at) / Fold change /veh IL23R (11748794_a_at) / RFU TNFAIP8L3 (11732012_x_at) / Fold change /veh TNFAIP8L3 (11732012_x_at) / RFU MBOAT4 (11741988_at) / Fold change /veh MBOAT4 (11741988_at) / RFU 11764193_at / Fold change /veh 11764193_at / RFU TMEM53 (11763286_at) / Fold change /veh TMEM53 (11763286_at) / RFU MAGEB2 (11727129_at) / Fold change /veh MAGEB2 (11727129_at) / RFU TMEM200A (11744735_a_at) / Fold change /veh TMEM200A (11744735_a_at) / RFU CCDC152 (11751479_a_at) / Fold change /veh CCDC152 (11751479_a_at) / RFU FAM211A (11726209_a_at) / Fold change /veh FAM211A (11726209_a_at) / RFU RGS16 (11746705_a_at) / Fold change /veh RGS16 (11746705_a_at) / RFU VCAN (11755009_s_at) / Fold change /veh VCAN (11755009_s_at) / RFU RHOB (11743442_s_at) / Fold change /veh RHOB (11743442_s_at) / RFU RGS16 (11720943_a_at) / Fold change /veh RGS16 (11720943_a_at) / RFU RGS16 (11720944_at) / Fold change /veh RGS16 (11720944_at) / RFU, VPS4B / Fold change vs veh, VPS4B / RFU, CREB1 / Fold change vs veh, CREB1 / RFU, DNAJC13 / Fold change vs veh, DNAJC13 / RFU, GNAQ / Fold change vs veh, GNAQ / RFU, CDK5R1 / Fold change vs veh, CDK5R1 / RFU, ZRANB3 / Fold change vs veh, ZRANB3 / RFU, CUL4A / Fold change vs veh, CUL4A / RFU, CCNY / Fold change vs veh, CCNY / RFU, UFL1 / Fold change vs veh, UFL1 / RFU, COG3 / Fold change vs veh, COG3 / RFU, DIAPH2 / Fold change vs veh, DIAPH2 / RFU, SKA2 / Fold change vs veh, SKA2 / RFU, AFF3 / Fold change vs veh, AFF3 / RFU, LMF1 / Fold change vs veh, LMF1 / RFU, IPO11 / Fold change vs veh, IPO11 / RFU, DFFB / Fold change vs veh, DFFB / RFU, FOXP1 / Fold change vs veh, FOXP1 / RFU, CARD8 / Fold change vs veh, CARD8 / RFU, STRN3 / Fold change vs veh, STRN3 / RFU, ADK / Fold change vs veh, ADK / RFU, RASSF2 / Fold change vs veh, RASSF2 / RFU, WIPF1 / Fold change vs veh, WIPF1 / RFU, LARP1B / Fold change vs veh, LARP1B / RFU, RASA1 / Fold change vs veh, RASA1 / RFU, RB1 / Fold change vs veh, RB1 / RFU, PPFIA1 / Fold change vs veh, PPFIA1 / RFU, MAT2A / Fold change vs veh, MAT2A / RFU, CCT5 / Fold change vs veh, CCT5 / RFU, WDR92 / Fold change vs veh, WDR92 / RFU, CUX1 / Fold change vs veh, CUX1 / RFU, TTC7A / Fold change vs veh, TTC7A / RFU, TMEM135 / Fold change vs veh, TMEM135 / RFU, DEPTOR / Fold change vs veh, DEPTOR / RFU, CPM / Fold change vs veh, CPM / RFU, DNAJB6 / Fold change vs veh, DNAJB6 / RFU, CACNA2D3 / Fold change vs veh, CACNA2D3 / RFU, DTX4 / Fold change vs veh, DTX4 / RFU, TFCP2 / Fold change vs veh, TFCP2 / RFU, GMCL1 /// GMCL1P1 / Fold change vs veh, GMCL1 /// GMCL1P1 / RFU, AEBP2 / Fold change vs veh, AEBP2 / RFU, SNHG1 /// SNORD22 /// SNORD25 /// SNORD26 /// SNORD27 /// SNORD28 /// SNORD29 /// SNORD31 / Fold change vs veh, SNHG1 /// SNORD22 /// SNORD25 /// SNORD26 /// SNORD27 /// SNORD28 /// SNORD29 /// SNORD31 / Fold change (Aza/veh), C12orf56 (ProbeSet 11735607_a_at) / Fold change (ACY-1035/veh), C12orf56 (ProbeSet 11735607_a_at) / Fold change (Aza/veh), FGFR1OP (ProbeSet 11751329_s_at) / Fold change (ACY-1035/veh), FGFR1OP (ProbeSet 11751329_s_at) / Fold change (Aza/veh), VPS36 (ProbeSet 11739960_a_at) / Fold change (ACY-1035/veh), VPS36 (ProbeSet 11739960_a_at) / RFU SYPL1 (11715823_x_at) / Fold change /veh SYPL1 (11715823_x_at) / RFU IGFBP7 (11715501_s_at) / Fold change /veh IGFBP7 (11715501_s_at) / RFU REEP3 (11722064_at) / Fold change /veh REEP3 (11722064_at) / RFU IGLL1 (11728026_x_at) / Fold change /veh IGLL1 (11728026_x_at): dose or concentration left out as unconfirmed
Details: ProbeSet 11753234_a_at; LIST B

Nc1ncn([C@@H]2O[C@H](CO)[C@@H](O)[C@H]2O)c(=O)n1 [azacitidine]
RFU, TAMM41: 52.96 RFU
